Reference: the NIST ThermoML archive (doi:10.1016/j.jct.2015.09.018)

Test: molar heat capacity at constant pressure
Conditions: 101.33 kPa, Crystal 3, relaxation calorimetry

[O-2].[O-2].[Ti+4] [titanium(IV) oxide]
Conditions	molar heat capacity at constant pressure [J/K/mol]
0.5 K	0.000432
1 K	0.00103
1.5 K	0.00196
2 K	0.00337
2.01 K	0.00218
2.35 K	0.00327
2.47 K	0.00544
2.5 K	0.00541
2.88 K	0.00862
3 K	0.00821
3.5 K	0.0119
3.72 K	0.01489
4 K	0.0165
4.31 K	0.02048
4.5 K	0.0221
4.54 K	0.02277
4.77 K	0.02538
5 K	0.0288
5.03 K	0.02844
5.32 K	0.03402
5.5 K	0.0365
5.56 K	0.03861
5.85 K	0.04314
6 K	0.0454
6.14 K	0.04818
6.46 K	0.05442
6.5 K	0.0553
6.84 K	0.06161
7 K	0.0662
7.16 K	0.06852
7.5 K	0.0782
7.53 K	0.07958
7.93 K	0.08951
8 K	0.0911
8.34 K	0.1005
8.5 K	0.105
8.78 K	0.1124
9 K	0.12
9.23 K	0.1263
9.5 K	0.135
9.74 K	0.1441
10 K	0.152
10.23 K	0.1603
10.79 K	0.1786
11 K	0.187
11.34 K	0.2003
11.93 K	0.2256
12 K	0.227
12.55 K	0.2505
13 K	0.271
13.2 K	0.2793
13.91 K	0.3136
14 K	0.318
14.6 K	0.3493
15 K	0.37
15.37 K	0.3923
16 K	0.428
16.16 K	0.4371
16.99 K	0.4905
17 K	0.491
17.87 K	0.5493
18 K	0.559
18.78 K	0.6158
19 K	0.634
19.77 K	0.6928
20 K	0.714
20.78 K	0.7811
21.84 K	0.8773
23.01 K	0.9887
24.2 K	1.12
25 K	1.21
25.43 K	1.26
26.78 K	1.42
28.14 K	1.6
29.6 K	1.8
30 K	1.85
31.12 K	2.01
32.74 K	2.25
34.45 K	2.52
35 K	2.62
36.24 K	2.82
38.12 K	3.16
40 K	3.52
40.1 K	3.54
42.19 K	3.95
44.41 K	4.41
45 K	4.54
46.71 K	4.93
49.16 K	5.48
50 K	5.66
51.71 K	6.07
54.41 K	6.71
55 K	6.87
57.24 K	7.42
60 K	8.12
60.22 K	8.18
63.37 K	8.97
65 K	9.38
66.7 K	9.78
70 K	10.75
70.19 K	10.75
73.8 K	11.78
75 K	12.2
77.13 K	12.82
80 K	13.67
81.7 K	13.98
85 K	15.16
85.33 K	15.22
89.74 K	16.6
90 K	16.65
94.38 K	17.97
95 K	18.14
99.29 K	19.28
100 K	19.6
104.43 K	20.84
109.84 K	22.53
110 K	22.48
115.54 K	24.21
120 K	25.26
121.46 K	25.88
128.44 K	27.05
130 K	27.96
134.65 K	29.35
140 K	30.55
141.61 K	31.35
148.86 K	33.43
150 K	33.04
156.57 K	35.12
160 K	35.43
165.09 K	36.06
170 K	37.72
173.67 K	37.71
180 K	39.89
182.65 K	39.71
190 K	41.95
192.19 K	41.35
200 K	43.91
201.69 K	44.69
210 K	45.75
212.16 K	46.49
220 K	47.49
223.15 K	48.5
230 K	49.13
234.7 K	50.34
240 K	50.66
246.88 K	52.02
250 K	52.11
259.67 K	53.63
260 K	53.46
270 K	54.73
273.07 K	55.28
273.15 K	55.11
280 K	55.92
287.77 K	56.22
290 K	57.04
298.15 K	57.89
300 K	58.08
302.73 K	58.1
305 K	58.58
